Source: ChEMBL document CHEMBL1140824, “Hepatoselectivity of statins: design and synthesis of 4-sulfamoyl pyrroles as HMG-CoA reductase inhibitors” (Bioorg Med Chem Lett, 2008)

Experiments:
[1] = target: T1, 3-hydroxy-3-methylglutaryl-coenzyme A reductase (Rattus norvegicus, UniProt P51639); assay: Inhibition of rat microsomal HMGCoA reductase
T1 sequence (P51639 whole entry): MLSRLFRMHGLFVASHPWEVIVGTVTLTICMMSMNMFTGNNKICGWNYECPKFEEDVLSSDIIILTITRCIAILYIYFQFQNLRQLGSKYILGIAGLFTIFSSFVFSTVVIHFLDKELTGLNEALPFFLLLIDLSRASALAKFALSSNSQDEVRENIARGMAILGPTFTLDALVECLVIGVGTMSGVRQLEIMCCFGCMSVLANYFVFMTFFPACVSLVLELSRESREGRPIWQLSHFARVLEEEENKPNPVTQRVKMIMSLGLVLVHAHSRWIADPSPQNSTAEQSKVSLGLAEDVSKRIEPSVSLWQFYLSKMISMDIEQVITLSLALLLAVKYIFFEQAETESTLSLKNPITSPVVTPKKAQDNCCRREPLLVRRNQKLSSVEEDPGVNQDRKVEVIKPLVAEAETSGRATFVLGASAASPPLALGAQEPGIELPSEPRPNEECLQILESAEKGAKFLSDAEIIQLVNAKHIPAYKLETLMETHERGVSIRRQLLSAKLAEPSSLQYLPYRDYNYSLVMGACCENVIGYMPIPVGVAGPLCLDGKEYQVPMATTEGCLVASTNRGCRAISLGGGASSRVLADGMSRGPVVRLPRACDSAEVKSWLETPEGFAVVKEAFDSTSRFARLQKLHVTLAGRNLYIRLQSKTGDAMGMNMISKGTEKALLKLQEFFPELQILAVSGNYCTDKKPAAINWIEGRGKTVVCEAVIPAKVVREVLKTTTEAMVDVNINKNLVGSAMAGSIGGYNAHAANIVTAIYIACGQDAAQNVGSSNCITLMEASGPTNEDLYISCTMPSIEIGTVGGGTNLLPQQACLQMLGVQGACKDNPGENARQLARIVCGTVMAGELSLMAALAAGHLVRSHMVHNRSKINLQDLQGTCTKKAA

L6 = assay: Inhibition of cholesterol synthesis in rat L6 myocyte; assay type: functional, cell-based
Hepatocyte [2] = assay: Inhibition of cholesterol synthesis in rat hepatocyte; assay type: functional, cell-based
Hepatocyte [3] = assay: Selectivity, ratio of IC50 for rat L6 myocyte to IC50 for rat hepatocyte; assay type: functional
Mus musculus = assay: Inhibition of acute cholesterol synthesis in mouse at 1 mg/kg; assay type: functional; settings: read-out: Inhibition
Syrian golden hamster = assay: Reduction of LDL cholesterol level in syrian golden hamster plasma; assay type: functional, Mesocricetus auratus
[4] = Ratio of Cmax for human to IC50 for rat L6 myocyte; assay type: functional
[5] = Cmax in human; assay type: ADME, organism-based; settings: in vivo
Homo sapiens = organism: Homo sapiens; assay: Incidence of myalgia in human; assay type: ADME, organism-based; settings: in vivo

Compound	IC50 [1] [nM]	IC50 (L6) [nM]	IC50 (Hepatocyte [2]) [nM]	Ratio IC50 (Hepatocyte [3])	inhibition in vivo at 1 mg/kg (Mus musculus) [%]	Inhibition (Syrian golden hamster) [%]	Ratio [4]	Cmax [5] [nM]	Activity (Homo sapiens) [%]
CC(C)c1c(S(=O)(=O)Nc2cccc(C(N)=O)c2)c(-c2ccc(F)cc2)c(-c2ccc(F)cc2)n1CC[C@@H](O)C[C@@H](O)CC(=O)[O-].[Na+]	18	36000	5	7340					
CNS(=O)(=O)c1c(-c2ccc(F)cc2)c(-c2ccc(F)cc2)n(CC[C@@H](O)C[C@@H](O)CC(=O)O)c1C(C)C	27		0.22		33				
CC(C)c1nc(N(C)S(C)(=O)=O)nc(-c2ccc(F)cc2)c1/C=C/[C@@H](O)C[C@@H](O)CC(=O)O [ROSUVASTATIN]	3.7			926	82.4	62	0.3	75	
CC(C)c1c(S(=O)(=O)Nc2ccccc2)c(-c2ccc(F)cc2)c(-c2ccc(F)cc2)n1CC[C@@H](O)C[C@@H](O)CC(=O)[O-].[Na+]	2	45	0.96	45					
CC(C)c1c(S(=O)(=O)Nc2ccc(F)cc2)c(-c2ccc(F)cc2)c(-c2ccc(F)cc2)n1CC[C@@H](O)C[C@@H](O)CC(=O)[O-].[Na+]	15	60	0.47	127	51.8				
CC(C)c1c(S(=O)(=O)Nc2cccc(CC(N)=O)c2)c(-c2ccc(F)cc2)c(-c2ccc(F)cc2)n1CC[C@@H](O)C[C@@H](O)CC(=O)[O-].[Na+]	1	10000	1.4	7299					
COCc1c(C(C)C)nc(C(C)C)c(/C=C/[C@@H](O)C[C@@H](O)CC(=O)O)c1-c1ccc(F)cc1 [CERIVASTATIN]		7		4.1			3.6	25	
CC(C)c1c(S(=O)(=O)N2CCN(C)CC2)c(-c2ccccc2)c(-c2ccc(F)cc2)n1CC[C@@H](O)C[C@@H](O)CC(=O)[O-].[Na+]	2.7	10500	3	3559					
CC(C)c1c(S(=O)(=O)N2CCCCC2)c(-c2ccccc2)c(-c2ccc(F)cc2)n1CC[C@@H](O)C[C@@H](O)CC(=O)[O-].[Na+]	2.9	7000	0.67	10479	56				
CC(C)c1c(S(=O)(=O)Nc2ccc(C(N)=O)cc2)c(-c2ccc(F)cc2)c(-c2ccc(F)cc2)n1CC[C@@H](O)C[C@@H](O)CC(=O)[O-].[Na+]	5.8	2340	1.8	1300	34.4				
CC(C)c1c(S(=O)(=O)N2CCOCC2)c(-c2ccccc2)c(-c2ccc(F)cc2)n1CC[C@@H](O)C[C@@H](O)CC(=O)[O-].[Na+]		10000	0.8	12469	55.6	11			
CC(C)c1c(S(=O)(=O)N2CCCC2)c(-c2ccccc2)c(-c2ccc(F)cc2)n1CC[C@@H](O)C[C@@H](O)CC(=O)[O-].[Na+]	2.6	5200	0.5	10400	75.9	38			
CC(C)c1c(S(=O)(=O)N(C)Cc2ccccc2)c(-c2ccccc2)c(-c2ccc(F)cc2)n1CC[C@@H](O)C[C@@H](O)CC(=O)[O-].[Na+]	8.5	140	0.25	566					
CC(C)c1c(S(=O)(=O)N2CCC2)c(-c2ccccc2)c(-c2ccc(F)cc2)n1CC[C@@H](O)C[C@@H](O)CC(=O)[O-].[Na+]	1.8	2150	1.1	1954	34.8				
CC(C)c1c(S(=O)(=O)Nc2ccc(S(N)(=O)=O)cc2)c(-c2ccc(F)cc2)c(-c2ccc(F)cc2)n1CC[C@@H](O)C[C@@H](O)CC(=O)[O-].[Na+]	4.9	4380	2.7	1622	15				
CC(C)c1c(S(=O)(=O)N(C)C)c(-c2ccccc2)c(-c2ccc(F)cc2)n1CC[C@@H](O)C[C@@H](O)CC(=O)[O-].[Na+]	6.5	1380	0.45	3066					
CC(C)c1c(S(=O)(=O)Nc2cccc(O)c2)c(-c2ccc(F)cc2)c(-c2ccc(F)cc2)n1CC[C@@H](O)C[C@@H](O)CC(=O)[O-].[Na+]	9.4	2500	0.4	6250	44.2				
CC(C)c1c(S(=O)(=O)Nc2ccccc2)c(-c2ccccc2)c(-c2ccc(F)cc2)n1CC[C@@H](O)C[C@@H](O)CC(=O)[O-].[Na+]	9	20	0.57	34	49.2				
CC(C)c1c(S(=O)(=O)N2CCSCC2)c(-c2ccc(F)cc2)c(-c2ccc(F)cc2)n1CC[C@@H](O)C[C@@H](O)CC(=O)[O-].[Na+]	9.7	5700	3.3	1748	15				
CC(C)c1c(S(=O)(=O)N(C)C)c(-c2ccc(F)cc2)c(-c2ccc(F)cc2)n1CC[C@@H](O)C[C@@H](O)CC(=O)[O-].[Na+]	6.1	1400	0.75	1866	58.8	30			
CC[C@H](C)C(=O)O[C@H]1C[C@H](O)C=C2C=C[C@H](C)[C@H](CC[C@@H](O)C[C@@H](O)CC(=O)O)[C@H]21 [PRAVASTATIN]				444			0.01	100	10.9
CC(C)c1c(C(=O)Nc2ccccc2)c(-c2ccccc2)c(-c2ccc(F)cc2)n1CC[C@@H](O)C[C@@H](O)CC(=O)O [ATORVASTATIN]		142	0.99		75.2				
CC(C)c1c(S(=O)(=O)NCc2ccccc2)c(-c2ccc(F)cc2)c(-c2ccc(F)cc2)n1CC[C@@H](O)C[C@@H](O)CC(=O)[O-].[Na+]	13	2200	0.37	5945	58.6				
CC(C)c1c(S(=O)(=O)N2CCc3ccccc3C2)c(-c2ccc(F)cc2)c(-c2ccc(F)cc2)n1CC[C@@H](O)C[C@@H](O)CC(=O)[O-].[Na+]	8.4	2500	2.5	984					
CC(C)c1c(S(=O)(=O)N(C)Cc2ccccc2)c(-c2ccc(F)cc2)c(-c2ccc(F)cc2)n1CC[C@@H](O)C[C@@H](O)CC(=O)[O-].[Na+]	8	550	0.69	797					
CCC(C)(C)C(=O)O[C@H]1C[C@@H](C)C=C2C=C[C@H](C)[C@H](CC[C@@H]3C[C@@H](O)CC(=O)O3)[C@H]21 [SIMVASTATIN]		150						120	18.2
